Reference: patent US20110081315A1, “NOVEL MACROCYCLIC INHIBITORS OF HEPATITIS C VIRUS REPLICATION” (INTERMUNE, INC., priority 2009, published 2011)

Tests used:
[1] = system: hepatitis C replicon; assay: hepatitis C replicon EC50 assay; type: cell-based; conditions: Hepatitis C virus; hepatitis C replicon; read-out: EC50
In short: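 First, NS3 and NS4 are complexed; test compounds are then titrated against the complex at room temperature (23° C.) in Tris-HCl buffer, pH 7.5, supplemented with glycerol (15%), LDAO (0.6 mM), DTT (10 mM) and NS4A peptide (25 μM) to give IC50. Separately, replicon cells give EC50.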

[2] = target: NS3/NS4 complexes (Hepatitis C virus genotype 1a, UniProt P27958); assay: NS3/NS4 inhibition assay (IC50); type: biochemical; conditions: NS3/NS4 activity; 23° C., 25 μM NS4A peptide
NS3/NS4 complexes, sequence (P27958 1027-1657, one chain of several): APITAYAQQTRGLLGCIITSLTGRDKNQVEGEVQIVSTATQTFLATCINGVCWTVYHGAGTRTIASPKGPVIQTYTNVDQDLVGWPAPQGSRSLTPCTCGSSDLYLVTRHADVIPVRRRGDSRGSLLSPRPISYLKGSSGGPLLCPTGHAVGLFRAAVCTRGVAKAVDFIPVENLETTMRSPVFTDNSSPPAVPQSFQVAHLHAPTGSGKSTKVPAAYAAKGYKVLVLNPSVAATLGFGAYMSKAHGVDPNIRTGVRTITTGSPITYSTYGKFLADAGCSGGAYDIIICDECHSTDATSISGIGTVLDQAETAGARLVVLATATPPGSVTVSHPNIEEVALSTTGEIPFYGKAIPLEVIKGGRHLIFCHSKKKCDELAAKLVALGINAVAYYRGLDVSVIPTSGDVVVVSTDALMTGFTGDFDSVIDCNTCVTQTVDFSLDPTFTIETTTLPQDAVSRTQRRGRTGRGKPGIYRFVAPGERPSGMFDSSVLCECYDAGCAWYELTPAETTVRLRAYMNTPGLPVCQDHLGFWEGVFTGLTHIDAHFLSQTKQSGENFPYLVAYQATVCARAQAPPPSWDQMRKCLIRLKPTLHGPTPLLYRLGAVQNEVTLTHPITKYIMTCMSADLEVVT
In short: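 Read-outs are IC50 for inhibition of the NS3/NS4 complex and EC50 in an HCV replicon system. Biochemical runs use 23° C. and a 50 mM Tris-HCl (pH 7.5) buffer with 15% glycerol, 10 mM DTT, 0.6 mM LDAO and 25 μM NS4A peptide.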

SMILES	EC50 [1] [nM]	IC50 [2] [nM]
CC(C)(C)OC(=O)N[C@H]1CCCCC/C=C\[C@@H]2C[C@@]2(C(=O)NS(=O)(=O)C2(C)CC2)NC(=O)[C@@H]2C[C@@H](n3nnc(-c4ccccc4)n3)CN2C1=O [Compound 801]	10 to 100	< 10
CC1(S(=O)(=O)NC(=O)[C@@]23C[C@H]2/C=C\CCCCC[C@H](Nc2ccccc2)C(=O)N2C[C@H](n4nnc(-c5ccccc5)n4)C[C@H]2C(=O)N3)CC1 [Compound 802]	> 100	< 10
COc1ccc(-c2nnn([C@@H]3C[C@H]4C(=O)N[C@]5(C(=O)NS(=O)(=O)C6(C)CC6)C[C@H]5/C=C\CCCCC[C@H](NC(=O)OC(C)(C)C)C(=O)N4C3)n2)cc1 [Compound 803]	10 to 100	< 10
COc1ccc(-c2nnn([C@@H]3C[C@H]4C(=O)N[C@]5(C(=O)NS(=O)(=O)C6(C)CC6)C[C@H]5/C=C\CCCCC[C@H](Nc5ccccc5)C(=O)N4C3)n2)cc1 [Compound 804]	10 to 100	< 10
CC1(S(=O)(=O)NC(=O)[C@@]23C[C@H]2/C=C\CCCCC[C@H](Nc2ccccc2)C(=O)N2C[C@H](n4nnc(-c5cccc(-c6nccs6)c5)n4)C[C@H]2C(=O)N3)CC1 [Compound 805]	> 100	< 10
COc1ccc2c(O[C@@H]3C[C@H]4C(=O)N[C@]5(C(=O)NS(=O)(=O)C6(C)CC6)C[C@H]5/C=C\CCCCC[C@H](Nc5cccc(F)c5)C(=O)N4C3)nc(-c3nc(C(C)C)cs3)nc2c1C [Compound 901]	< 10	< 10
COc1ccc2c(O[C@@H]3C[C@H]4C(=O)N[C@]5(C(=O)NS(=O)(=O)C6(C)CC6)C[C@H]5/C=C\CCCCC[C@H](Nc5ccc(F)c(F)c5)C(=O)N4C3)cc(-c3nc(C(C)C)cs3)nc2c1C [Compound 1001]	< 10	< 10
COc1ccc2c(O[C@@H]3C[C@H]4C(=O)N[C@]5(C(=O)NS(=O)(=O)C6(C)CC6)C[C@H]5/C=C\CCCCC[C@H](Nc5ccccn5)C(=O)N4C3)cc(-c3nc(C(C)C)cs3)nc2c1C [Compound 1002]	< 10	< 10
CC1(S(=O)(=O)NC(=O)[C@@]23C[C@H]2/C=C\CCCCC[C@H](Nc2cccc(F)c2)C(=O)N2C[C@H](O)C[C@H]2C(=O)N3)CC1 [Compound 1003]	10 to 100	> 100
COc1ccc2c(O[C@@H]3C[C@H]4C(=O)N[C@]5(C(=O)NS(=O)(=O)C6(C)CC6)C[C@H]5/C=C\CCCCC[C@H](Nc5cccc(F)c5)C(=O)N4C3)nc(-c3nc(C(C)C)cs3)cc2c1 [Compound 1004]	10 to 100	< 10
COc1ccc2c(O[C@@H]3C[C@H]4C(=O)N[C@]5(C(=O)NS(=O)(=O)C6(C)CC6)C[C@H]5/C=C\CCCCC[C@H](Nc5cccc(F)c5)C(=O)N4C3)nc(-c3nc(C(C)C)cs3)cc2c1C [Compound 1005]	> 100	< 10
COc1cnc(O[C@@H]2C[C@H]3C(=O)N[C@]4(C(=O)NS(=O)(=O)C5(C)CC5)C[C@H]4/C=C\CCCCC[C@H](Nc4cccc(F)c4)C(=O)N3C2)c2cc(Cl)ccc12 [Compound 1101]	< 10	< 10
CC(C)c1nc(-c2cccc3c2nc(O[C@@H]2C[C@H]4C(=O)N[C@]5(C(=O)NS(=O)(=O)N(C)C)C[C@H]5/C=C\CCCCC[C@H](NC(=O)OC(C)(C)C)C(=O)N4C2)n3C(C)C)sc1C(C)C [Compound 1201]	> 100	< 10
CCn1c(O[C@@H]2C[C@H]3C(=O)N[C@]4(C(=O)NS(=O)(=O)N(C)C)C[C@H]4/C=C\CCCCC[C@H](NC(=O)OC(C)(C)C)C(=O)N3C2)nc2c(-c3nc(C(C)C)c(C)o3)cccc21 [Compound 1204]	< 10	< 10
Cc1oc(-c2cccc3c2nc(O[C@@H]2C[C@H]4C(=O)N[C@]5(C(=O)NS(=O)(=O)N(C)C)C[C@H]5/C=C\CCCCC[C@H](NC(=O)OC(C)(C)C)C(=O)N4C2)n3C(C)C)nc1C(C)(C)C [Compound 1205]	< 10	< 10
CCCc1nc(-c2cccc3c2nc(O[C@@H]2C[C@H]4C(=O)N[C@]5(C(=O)NS(=O)(=O)N(C)C)C[C@H]5/C=C\CCCCC[C@H](NC(=O)OC(C)(C)C)C(=O)N4C2)n3C(C)C)oc1C [Compound 1206]	< 10	< 10
Cc1sc(-c2cccc3c2nc(O[C@@H]2C[C@H]4C(=O)N[C@]5(C(=O)NS(=O)(=O)N(C)C)C[C@H]5/C=C\CCCCC[C@H](NC(=O)OC(C)(C)C)C(=O)N4C2)n3C(C)C)nc1C(C)(C)C [Compound 1207]	10 to 100	< 10
Cc1sc(-c2cccc3c2nc(O[C@@H]2C[C@H]4C(=O)N[C@]5(C(=O)NS(=O)(=O)C6(C)CC6)C[C@H]5/C=C\CCCCC[C@H](NC(=O)OC(C)(C)C)C(=O)N4C2)n3C(C)C)nc1C(C)(C)C [Compound 1208]	10 to 100	< 10
CCCc1nc(-c2cccc3c2nc(O[C@@H]2C[C@H]4C(=O)N[C@]5(C(=O)NS(=O)(=O)N(C)C)C[C@H]5/C=C\CCCCC[C@H](NC(=O)OC(C)(C)C)C(=O)N4C2)n3C(C)C)sc1C [Compound 1209]	< 10	< 10
CCCc1nc(-c2cccc3c2nc(O[C@@H]2C[C@H]4C(=O)N[C@]5(C(=O)NS(=O)(=O)C6(C)CC6)C[C@H]5/C=C\CCCCC[C@H](NC(=O)OC(C)(C)C)C(=O)N4C2)n3C(C)C)sc1C [Compound 1210]	< 10	< 10
CC(C)c1nc(-c2cccc3c2nc(O[C@@H]2C[C@H]4C(=O)N[C@]5(C(=O)NS(=O)(=O)N(C)C)C[C@H]5/C=C\CCCCC[C@H](NC(=O)OC(C)(C)C)C(=O)N4C2)n3C(C)C)oc1C(C)C [Compound 1211]	< 10	< 10
CC(C)c1nc(-c2cccc3c2nc(O[C@@H]2C[C@H]4C(=O)N[C@]5(C(=O)NS(=O)(=O)C6(C)CC6)C[C@H]5/C=C\CCCCC[C@H](NC(=O)OC(C)(C)C)C(=O)N4C2)n3C(C)C)oc1C(C)C [Compound 1212]	< 10	< 10
CC(C)c1nc(-c2cccc3c2nc(O[C@@H]2C[C@H]4C(=O)N[C@]5(C(=O)NS(=O)(=O)C6(C)CC6)C[C@H]5/C=C\CCCCC[C@H](NC(=O)OC(C)(C)C)C(=O)N4C2)n3C(C)C)sc1C(C)C [Compound 1213]	10 to 100	< 10
Cc1oc(-c2cccc3c2nc(O[C@@H]2C[C@H]4C(=O)N[C@]5(C(=O)NS(=O)(=O)N(C)C)C[C@H]5/C=C\CCCCC[C@H](NC(=O)OC(C)(C)C)C(=O)N4C2)n3C(C)C)nc1Cc1ccccc1 [Compound 1214]	< 10	< 10
Cc1oc(-c2cccc3c2nc(O[C@@H]2C[C@H]4C(=O)N[C@]5(C(=O)NS(=O)(=O)C6(C)CC6)C[C@H]5/C=C\CCCCC[C@H](NC(=O)OC(C)(C)C)C(=O)N4C2)n3C(C)C)nc1Cc1ccccc1 [Compound 1215]	< 10	< 10
Cc1sc(-c2cccc3c2nc(O[C@@H]2C[C@H]4C(=O)N[C@]5(C(=O)NS(=O)(=O)N(C)C)C[C@H]5/C=C\CCCCC[C@H](NC(=O)OC(C)(C)C)C(=O)N4C2)n3C(C)C)nc1Cc1ccccc1 [Compound 1216]	< 10	< 10
Cc1sc(-c2cccc3c2nc(O[C@@H]2C[C@H]4C(=O)N[C@]5(C(=O)NS(=O)(=O)C6(C)CC6)C[C@H]5/C=C\CCCCC[C@H](NC(=O)OC(C)(C)C)C(=O)N4C2)n3C(C)C)nc1Cc1ccccc1 [Compound 1217]	< 10	< 10
